Among the test systems are HCC-2998 colon; HCT-116 colon; NCI-H460 lung; OVCAR-5 ovarian; SF-268 CNS; SF-295 CNS; SK-MEL-28 melanoma; TK-10 renal; UACC-62 melanoma; UO-31 renal; HOP-92 NSCLC.
Assay in all cases: growth of human tumour cells (NCI), 48 h

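Assay format: 96-well plates, 48-hour exposure. Abbreviation: GI50, concentration required for 50% inhibition of growth. TGI denotes the concentration required for complete inhibition of growth.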 Where a SMILES comes first, the peptide text is derived from it. [ ]: non-standard residue; d: D form. The star is where a group is joined. ξ: configuration not given here. ξF = NC(Cc1ccccc1)C(=O)O; Cbz = O=C(OCc1ccccc1)*

`COC(=O)c1cc(S(=O)(=O)NC2=NCC(C)NN2)c(S)cc1Cl` (centres undefined): the TGI with HCC-2998 colon is > 100 µM; in the experiment with HCT-116 colon, > 100 µM; in the experiment on NCI-H460 lung, > 100 µM; with OVCAR-5 ovarian, > 100 µM; with SF-268 CNS it was 60.6 µM; in the experiment on SF-295 CNS, > 100 µM. Moreover, the TGI in the experiment on SK-MEL-28 melanoma, in the experiment on TK-10 renal, in the experiment with UACC-62 melanoma and with UO-31 renal was > 100 µM in each case.

In the case of `O=c1[nH]c(N/N=C\C(O)C(O)C(O)C(O)CO)nc2ccccc12` (centres undefined), the TGI in the experiment on HCT-116 colon, in the experiment with HOP-92 NSCLC, in the experiment with NCI-H460 lung, in the experiment with OVCAR-5 ovarian, in the experiment on SF-268 CNS and with SF-295 CNS was > 100 µM in each case. The TGI in the experiment with SK-MEL-28 melanoma, with TK-10 renal, with UACC-62 melanoma and in the experiment with UO-31 renal was > 100 µM each time.

Turning to `Cc1cc2nc3c(C#N)c(-c4ccccc4)/c(=C\Nc4ccc(F)cc4)c(=O)n3c2cc1C`, the TGI with HCC-2998 colon, in the experiment on HCT-116 colon, in the experiment on NCI-H460 lung, in the experiment on OVCAR-5 ovarian, with SF-268 CNS and in the experiment with SF-295 CNS was > 100 µM in each case. Also, the TGI with SK-MEL-28 melanoma, in the experiment on TK-10 renal and in the experiment with UO-31 renal was > 100 µM throughout.

For `Cn1c2ccccc2c(=O)c2c(O)cc3c(c21)C1OCC(C)(O)C1O3` (centres undefined), the TGI was > 100 µM in the experiment on HCC-2998 colon; > 100 µM with HCT-116 colon; > 100 µM with OVCAR-5 ovarian; 86.6 µM with SF-268 CNS; > 100 µM in the experiment with SK-MEL-28 melanoma; > 100 µM with TK-10 renal. In addition, the TGI with UO-31 renal was found to be 36.6 µM.

In the case of `CCOC(=O)CNC(=O)C(Cc1ccccc1)NC(=O)OCc1ccccc1` (centres undefined) (Cbz-[ξF]-Gly-OEt), the TGI in the experiment with HCC-2998 colon, in the experiment on HCT-116 colon, with HOP-92 NSCLC, in the experiment on NCI-H460 lung, in the experiment on OVCAR-5 ovarian and in the experiment with SF-268 CNS was > 100 µM each time. For the same compound, the TGI in the experiment on SF-295 CNS and in the experiment on UO-31 renal was > 100 µM throughout.

In the case of `COC1(OC)CCc2c(sc3ncnc(Nc4cccc(Br)c4)c23)C1`, the TGI in the experiment with HCC-2998 colon was > 100 µM; in the experiment with HCT-116 colon it was > 100 µM; in the experiment on HOP-92 NSCLC it was > 100 µM; in the experiment with NCI-H460 lung it was > 100 µM; in the experiment with OVCAR-5 ovarian, 51.4 µM; in the experiment on SF-268 CNS, > 100 µM. In addition, the TGI in the experiment on SF-295 CNS, in the experiment on TK-10 renal, in the experiment with UACC-62 melanoma and in the experiment on UO-31 renal was > 100 µM throughout.

With `Cc1cc(C)c(-c2no/c(=N\S(=O)(=O)c3ccc(Cl)cc3)o2)c(C)c1`, the TGI in the experiment on HCC-2998 colon, in the experiment on HCT-116 colon, in the experiment with NCI-H460 lung, with OVCAR-5 ovarian, in the experiment on SF-268 CNS and with SF-295 CNS was > 100 µM in each case. Moreover, the TGI in the experiment on SK-MEL-28 melanoma, in the experiment with TK-10 renal, with UACC-62 melanoma and in the experiment with UO-31 renal was > 100 µM each time.

For the compound `O=C1c2ccccc2N2OC3(N4CCOCC4)CCCC3C12c1ccccc1` (centres undefined), the TGI in the experiment with HCC-2998 colon, in the experiment on HCT-116 colon, in the experiment with HOP-92 NSCLC, in the experiment with SF-268 CNS, with SF-295 CNS and with SK-MEL-28 melanoma was > 100 µM each time. For the same compound, the TGI with UACC-62 melanoma and in the experiment on UO-31 renal was > 100 µM each time.

Turning to `COC(=O)[C@@H]1CO[C@H](C(C)(C)C)N1C(=O)N1C=CC(=O)C[C@H]1C`, the TGI with HCT-116 colon, in the experiment with HOP-92 NSCLC, in the experiment with OVCAR-5 ovarian, with SF-268 CNS, in the experiment with SF-295 CNS and in the experiment on SK-MEL-28 melanoma was > 100 µM in each case. Further, the TGI in the experiment on TK-10 renal, with UACC-62 melanoma and with UO-31 renal was > 100 µM throughout.

As to `O=S(=O)(/N=C(\NO)Nc1ccc(Cl)cc1)c1cc(C(F)(F)F)cc(C(F)(F)F)c1`, the TGI with HCT-116 colon was 31.2 µM; with HOP-92 NSCLC it was 30.3 µM; in the experiment on NCI-H460 lung it was 73.6 µM; with OVCAR-5 ovarian, 30.1 µM; in the experiment with SF-268 CNS, 50.7 µM; with SF-295 CNS, 36.4 µM. Further, the values for the TGI with SK-MEL-28 melanoma, with TK-10 renal and in the experiment on UACC-62 melanoma were 39 µM, 37.6 µM and 30.7 µM, respectively.

For `CC(=O)NC1C(OCC(=O)NCCNc2ccc([N+](=O)[O-])c3[nH]c4ccccc4c(=O)c23)C(O)C(CO)OC1(C)OCc1ccccc1` (centres undefined), the TGI with HCC-2998 colon, in the experiment on HCT-116 colon, with NCI-H460 lung, with OVCAR-5 ovarian, in the experiment on SF-268 CNS and in the experiment with SF-295 CNS was > 100 µM in each case. The TGI in the experiment on TK-10 renal, with UACC-62 melanoma and with UO-31 renal was > 100 µM in each case.

Turning to `CCOC(=O)C1(C/C=C\CBr)CCCC1=O` (centres undefined), the TGI in the experiment on HCT-116 colon was 40 µM; in the experiment with OVCAR-5 ovarian, > 100 µM; in the experiment on SF-268 CNS it was > 100 µM; with SF-295 CNS, > 100 µM; in the experiment with SK-MEL-28 melanoma, > 100 µM; in the experiment on TK-10 renal it was 39 µM. Besides, the results for the TGI in the experiment with UACC-62 melanoma and with UO-31 renal were 39.8 µM and 59.5 µM, respectively.

With `O=C(c1ccc(Cl)cc1)N(C(=O)N1CCCCC1)c1ccccc1`, the TGI with HCT-116 colon, in the experiment on OVCAR-5 ovarian, in the experiment on SF-268 CNS, in the experiment with SK-MEL-28 melanoma, in the experiment with UACC-62 melanoma and in the experiment on UO-31 renal was > 100 µM each time.

In the case of `O=C1CC(c2cccc(Cl)c2)Nc2ccc(N3CCCC3)cc21` (centres undefined), the GI50 is 14.8 nM with HCC-2998 colon, 135 nM in the experiment on HOP-92 NSCLC, 41.7 nM with SF-268 CNS and > 100 µM in the experiment with TK-10 renal. In addition, the TGI in the experiment with HCC-2998 colon is 0.0611 µM; with HOP-92 NSCLC, > 100 µM; in the experiment on SF-268 CNS, > 100 µM; with SF-295 CNS it was > 100 µM; with SK-MEL-28 melanoma it was > 100 µM; in the experiment on TK-10 renal it was > 100 µM. The TGI in the experiment on UO-31 renal is 50.7 µM.

The values above are taken from PubChem BioAssay (NCI).
